In PubChem BioAssay AID248 (DTP/NCI, 2004):
Several values for one entry are separate records, joined by “and”; a condition that tells them apart may be missing. Equal values may be shown once. Toxic doses and inconclusive results are not listed. Square brackets hold non-standard residues; d marks the D form. Peptide text beside a SMILES is read from it. ξ: configuration not given here. ξY = NC(Cc1ccc(O)cc1)C(=O)O

System: L1210 leukemia ip in BDF1 mice, survival T/C
Assay: NCI In Vivo Anticancer Drug Screen. Data for tumor model L1210 Leukemia (intraperitoneal) in B6D2F1 (BDF1) mice
Settings: endpoint: mean survival time, higher = longer survival
How it was run: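 Tumor cells were implanted, animals were treated, and survival was followed. The result divides the treated measurement by the vehicle-control measurement.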

[1] = dose: 100.0 mg/kg/injection, schedule: Q01DX001 (ip), vehicle: saline
[2] = dose: 200.0 mg/kg/injection, schedule: Q01DX001 (ip), vehicle: saline
[3] = dose: 400.0 mg/kg/injection, schedule: Q01DX001 (ip), vehicle: saline

In the case of `CN1CCN=C1c1ccc(NC(=O)Nc2ccc(NC(=O)Nc3ccc(C4=NCCN4C)cc3)cc2)cc1`, the T/C (dose: 6.5 mg/kg/injection, schedule: Q01DX009 (ip), vehicle: other) is reported as 108 % of control, the T/C (dose: 10.0 mg/kg/injection, schedule: Q01DX009 (ip), vehicle: other) is reported as 105 % of control and the T/C (dose: 15.0 mg/kg/injection, schedule: Q01DX009 (ip), vehicle: other) is reported as 118 % of control. For the same molecule, the T/C (dose: 22.0 mg/kg/injection, schedule: Q01DX009 (ip), vehicle: other) was 118 % of control, the T/C (dose: 33.0 mg/kg/injection, schedule: Q01DX009 (ip), vehicle: other) was 162 % of control and the T/C (dose: 50.0 mg/kg/injection, schedule: Q01DX009 (ip), vehicle: other) was 227 % of control. For the same molecule, the T/C (dose: 50.0 mg/kg/injection, schedule: Q01DX009 (ip), vehicle: saline) was 191 % of control, the T/C (dose: 75.0 mg/kg/injection, schedule: Q01DX001 (ip), vehicle: other) was 109 % of control and the T/C (dose: 75.0 mg/kg/injection, schedule: Q01DX009 (ip), vehicle: other) was 204 % of control. The T/C (dose: 75.0 mg/kg/injection, schedule: Q01DX009 (ip), vehicle: saline) was 191 % of control, the T/C (dose: 112.0 mg/kg/injection, schedule: Q01DX009 (ip), vehicle: other) was 111 % of control and the T/C (dose: 112.0 mg/kg/injection, schedule: Q01DX009 (ip), vehicle: saline) was 197 % of control. For the same molecule, the T/C (dose: 150.0 mg/kg/injection, schedule: Q01DX001 (ip), vehicle: other) was 124 % of control.
With `COc1cccc2c1C(=O)c1c(O)c3c(c(O)c1C2=O)C[C@@](O)(/C(C)=N\O)C[C@@H]3OC1CC(N)C(O)C(C)O1` (stereo partly specified) the T/C (dose: 1.0 mg/kg/injection, schedule: Q04DX003 (ip), vehicle: water) was 106 % of control, the T/C (dose: 2.0 mg/kg/injection, schedule: Q04DX003 (ip), vehicle: water) was 115 % of control and the T/C (dose: 4.0 mg/kg/injection, schedule: Q04DX003 (ip), vehicle: water) was 113 % of control.
With `O=C(O)c1ccc2c(=O)[nH][nH]c(=O)c2c1` the T/C (dose: 87.5 mg/kg/injection, schedule: Q01DX009 (ip), vehicle: Klucel (hydroxypropylcellulose) (HPC)) was 101 % of control, the T/C (dose: 175.0 mg/kg/injection, schedule: Q01DX009 (ip), vehicle: Klucel (hydroxypropylcellulose) (HPC)) was 96 % of control and the T/C (dose: 350.0 mg/kg/injection, schedule: Q01DX009 (ip), vehicle: Klucel (hydroxypropylcellulose) (HPC)) was 102 % of control.
With `CC(CC(C)(C)C(C)(C)C)C(C)(C)C` (stereo unspecified) the T/C [1] was 90 % of control, the T/C [2] was 100 % of control and the T/C [3] was 107 % of control.
With `CC(C(=O)Nc1ccc(Cl)c(Cl)c1)C(=O)Nc1ccc(Cl)c(Cl)c1` the T/C (dose: 100.0 mg/kg/injection, schedule: Q04DX002 (ip), vehicle: gum acacia) was 92 % of control, the T/C (dose: 200.0 mg/kg/injection, schedule: Q04DX002 (ip), vehicle: gum acacia) was 103 % of control and the T/C (dose: 400.0 mg/kg/injection, schedule: Q04DX002 (ip), vehicle: gum acacia) was 99 % of control.
In the case of `NCC(=O)NC(Cc1ccc(O)cc1)C(=O)O` (stereo unspecified) (H-Gly-[ξY]-OH), the T/C [1] is reported as 104 % of control, the T/C [2] is reported as 105 % of control and 102 % of control and the T/C [3] is reported as 98 % of control and 93 % of control.
With `Nc1nc(N)c(-c2ccc(Cl)c(Cl)c2)c(COc2ccc(NC(=O)c3ccc(S(=O)(=O)F)cc3)cc2Cl)n1` the T/C (dose: 50.0 mg/kg/injection, schedule: Q01DX001 (ip), vehicle: Klucel (hydroxypropylcellulose) (HPC)) was 97 % of control and the T/C (dose: 100.0 mg/kg/injection, schedule: Q01DX001 (ip), vehicle: Klucel (hydroxypropylcellulose) (HPC)) was 97 % of control.
For `CCC(=O)c1ccc(O)c(C)c1`, the T/C (dose: 55.5 mg/kg/injection, schedule: Q01DX Z (ip), vehicle: methylcellulose (MC)) was 98 % of control, the T/C (dose: 83.3 mg/kg/injection, schedule: Q01DX Z (ip), vehicle: methylcellulose (MC)) was 96 % of control and the T/C (dose: 125.0 mg/kg/injection, schedule: Q01DX Z (ip), vehicle: methylcellulose (MC)) was 102 % of control. For the same molecule, the T/C (dose: 187.5 mg/kg/injection, schedule: Q01DX Z (ip), vehicle: methylcellulose (MC)) was 103 % of control.
In the case of `O=C(c1ccccc1)c1cc(CN(C2CCCCC2)C2CCCCC2)c(O)cc1O`, the T/C [1] is reported as 90 % of control, the T/C [2] is reported as 91 % of control and the T/C [3] is reported as 96 % of control.
With `O=P1(Cc2ccccc2)CC(Br)C(Br)C1` (stereo unspecified) the T/C (dose: 100.0 mg/kg/injection, schedule: Q04DX003 (ip), vehicle: other) was 101 % of control, the T/C (dose: 200.0 mg/kg/injection, schedule: Q04DX003 (ip), vehicle: other) was 101 % of control and the T/C (dose: 400.0 mg/kg/injection, schedule: Q04DX003 (ip), vehicle: other) was 101 % of control.
With `COc1ccc(N=CN(C)C)nn1` the T/C (dose: 100.0 mg/kg/injection, schedule: Q04DX002 (ip), vehicle: saline with Tween-80) was 91 % of control, the T/C (dose: 200.0 mg/kg/injection, schedule: Q04DX002 (ip), vehicle: saline with Tween-80) was 97 % of control and the T/C (dose: 400.0 mg/kg/injection, schedule: Q04DX002 (ip), vehicle: saline with Tween-80) was 97 % of control.
In the case of `CCCSC(=O)N(CC)C(=NCC)c1ccc(NC(=O)c2ccc(C(=O)Nc3ccc(C(=NCC)N(CC)C(=O)SCCC)cc3)cc2)cc1`, the T/C (dose: 2.25 mg/kg/injection, schedule: Q01DX015 (ip), vehicle: methylcellulose (MC)) is reported as 104 % of control, the T/C (dose: 4.5 mg/kg/injection, schedule: Q01DX015 (ip), vehicle: methylcellulose (MC)) is reported as 100 % of control and the T/C (dose: 9.0 mg/kg/injection, schedule: Q01DX015 (ip), vehicle: methylcellulose (MC)) is reported as 100 % of control. For the same molecule, the T/C (dose: 18.0 mg/kg/injection, schedule: Q01DX015 (ip), vehicle: methylcellulose (MC)) was 102 % of control, the T/C (dose: 75.0 mg/kg/injection, schedule: Q01DX015 (ip), vehicle: methylcellulose (MC)) was 90 % of control and the T/C (dose: 150.0 mg/kg/injection, schedule: Q01DX015 (ip), vehicle: methylcellulose (MC)) was 86 % of control.
For `COc1ccc(CCS(=O)(=O)N=[N+]=[N-])cc1`, the T/C (dose: 100.0 mg/kg/injection, schedule: Q04DX003 (ip), vehicle: saline with Tween-80) was 104 % of control, the T/C (dose: 200.0 mg/kg/injection, schedule: Q04DX003 (ip), vehicle: saline with Tween-80) was 116 % of control and the T/C (dose: 400.0 mg/kg/injection, schedule: Q04DX003 (ip), vehicle: saline with Tween-80) was 112 % of control.
`COC12C(COC(=O)NCCO)C3=C(C(=O)C(C)=C(N)C3=O)N1CC1NC12` (stereo unspecified) was tested, and the T/C (dose: 5.0 mg/kg/injection, schedule: Q01DX009 (ip), vehicle: saline) was 121 % of control, the T/C (dose: 10.0 mg/kg/injection, schedule: Q01DX009 (ip), vehicle: saline) was 122 % of control and the T/C (dose: 12.0 mg/kg/injection, schedule: Q04DX003 (ip), vehicle: Klucel (hydroxypropylcellulose) (HPC)) was 94 % of control. For the same molecule, the T/C (dose: 19.0 mg/kg/injection, schedule: Q04DX003 (ip), vehicle: Klucel (hydroxypropylcellulose) (HPC)) was 111 % of control, the T/C (dose: 28.0 mg/kg/injection, schedule: Q04DX003 (ip), vehicle: Klucel (hydroxypropylcellulose) (HPC)) was 111 % of control and the T/C (dose: 40.0 mg/kg/injection, schedule: Q01DX009 (ip), vehicle: saline) was 102 % of control. For the same molecule, the T/C (dose: 43.0 mg/kg/injection, schedule: Q01DX001 (ip), vehicle: Klucel (hydroxypropylcellulose) (HPC)) was 121 % of control, the T/C (dose: 43.0 mg/kg/injection, schedule: Q01DX009 (ip), vehicle: Klucel (hydroxypropylcellulose) (HPC)) was 109 % of control and the T/C (dose: 43.0 mg/kg/injection, schedule: Q04DX003 (ip), vehicle: Klucel (hydroxypropylcellulose) (HPC)) was 115 % of control. The T/C (dose: 100.0 mg/kg/injection, schedule: Q01DX003 (ip), vehicle: Klucel (hydroxypropylcellulose) (HPC)) was 103 % of control, the T/C (dose: 150.0 mg/kg/injection, schedule: Q01DX001 (ip), vehicle: Klucel (hydroxypropylcellulose) (HPC)) was 102 % of control and the T/C (dose: 150.0 mg/kg/injection, schedule: Q01DX003 (ip), vehicle: Klucel (hydroxypropylcellulose) (HPC)) was 94 % of control. The T/C (dose: 200.0 mg/kg/injection, schedule: Q04DX002 (ip), vehicle: Klucel (hydroxypropylcellulose) (HPC)) was 91 % of control, the T/C (dose: 225.0 mg/kg/injection, schedule: Q01DX001 (ip), vehicle: Klucel (hydroxypropylcellulose) (HPC)) was 91 % of control and the T/C (dose: 225.0 mg/kg/injection, schedule: Q01DX003 (ip), vehicle: Klucel (hydroxypropylcellulose) (HPC)) was 95 % of control. For the same molecule, the T/C (dose: 400.0 mg/kg/injection, schedule: Q04DX002 (ip), vehicle: Klucel (hydroxypropylcellulose) (HPC)) was 91 % of control.
`NC1=NC(=S)C2N=C(N=Nc3ccc(C(=O)NC(CCC(=O)O)C(=O)O)cc3)N=C2N1` (stereo unspecified) was tested, and the T/C (dose: 1.56 mg/kg/injection, schedule: Q01DX009 (ip), vehicle: Klucel (hydroxypropylcellulose) (HPC)) was 156 % of control and 177 % of control and 194 % of control, the T/C (dose: 3.13 mg/kg/injection, schedule: Q01DX009 (ip), vehicle: Klucel (hydroxypropylcellulose) (HPC)) was 189 % of control and the T/C (dose: 25.0 mg/kg/injection, schedule: Q01DX009 (ip), vehicle: Klucel (hydroxypropylcellulose) (HPC)) was 120 % of control. The T/C (dose: 50.0 mg/kg/injection, schedule: Q01DX009 (ip), vehicle: Klucel (hydroxypropylcellulose) (HPC)) was 121 % of control, the T/C (dose: 50.0 mg/kg/injection, schedule: Q04DX003 (ip), vehicle: Klucel (hydroxypropylcellulose) (HPC)) was 114 % of control and the T/C (dose: 100.0 mg/kg/injection, schedule: Q01DX009 (ip), vehicle: Klucel (hydroxypropylcellulose) (HPC)) was 88 % of control.
For `O=C(O)CSc1cc(Cl)c(Cl)cc1Cl`, the T/C (dose: 87.5 mg/kg/injection, schedule: Q04DX003 (ip), vehicle: other) was 100 % of control and the T/C (dose: 175.0 mg/kg/injection, schedule: Q04DX003 (ip), vehicle: other) was 110 % of control.
